Measurements as given in patent US8883841B2, “Oncogenic ras-specific cytotoxic compound and methods of use thereof” (The Board of Regents of the University of Texas System, priority 2005, dated 2014).
Where two headings read alike, the source gives them in different places.

How the values were obtained:
H460 cells [1] = details: for IC50 in H460 cells: Table 1, value is the negative log10 of mol/L
T29 cells = details: Table 1; value is the negative log10 of mol/L
T29Kt1 cells [2] = details: Table 1, value is the negative log10 of mol/L
DLD1 = experiment: Cell viability, DLD1 colon cancer cells; assay type: cell-based, human; details: for IC50: Homo sapiens, DLD-1, read-out: IC50 (−LogM) (converted)
Heb46 = experiment: Cell viability, Heb46 kidney cells; assay type: cell-based
A549CK8 = experiment: Cell viability, A549CK8 lung cancer cells; assay type: cell-based, human; details: for IC50: Homo sapiens, read-out: IC50 (−LogM) (converted)
HKE3 = experiment: Cell viability, HKE3 colon cancer cells; assay type: cell-based, human; details: for IC50: Homo sapiens; for IC50 (−LogM): HKE3, Colon
CT116P53 = experiment: Cell viability, CT116P53 colon cancer cells; assay type: cell-based, human; details: for IC50: Homo sapiens, read-out: IC50 (−LogM) (converted)
Capanc-1 = experiment: Cell viability, Capanc-1 pancreatic cancer cells; assay type: cell-based, human; details: for IC50: Homo sapiens, Pancreatic cancer cell, read-out: IC50 (−LogM), capanc1, Pancrease (converted)
Heb44 = experiment: Cell viability, Heb44 kidney cells; assay type: cell-based
Hct116 = experiment: Cell viability, Hct116 colon cancer cells; assay type: cell-based, human; details: for IC50: Homo sapiens, HCT-116, read-out: IC50 (−LogM), Hct116, Colon (converted)
A549 cells = experiment: Cell viability, A549 lung cancer cells; assay type: cell-based, human; details: for IC50: Homo sapiens, A549, read-out: IC50 (−LogM), A549, Lung (converted)
T29Kt1 cells [3] = experiment: cells; details: Homo sapiens, T29Kt1, read-out: IC50 in T29k cells, Table 1
H460 cells [4] = experiment: cells; details: Homo sapiens
H226B cells = experiment: Cell viability, H226B lung cancer cells; assay type: cell-based, human; details: for IC50: Homo sapiens; for IC50 (−LogM): H226B, Lung
miapac = experiment: Cell viability, miapac pancreatic cancer cells; assay type: cell-based, human; details: for IC50: Homo sapiens, Pancreatic cancer cell, read-out: IC50 (−LogM) (converted)
AsPC-1 = experiment: Cell viability, AsPC-1 pancreatic cancer cells; assay type: cell-based, human; details: for IC50: Homo sapiens, ASPC1, read-out: IC50 (−LogM), ASPC1, Pancrease (converted)
H322 cells = experiment: Cell viability, H322 lung cancer cells; assay type: cell-based, human; details: H322, Lung
H1299 cells = experiment: Cell viability, H1299 lung cancer cells; assay type: cell-based, human
Sw620 = experiment: Cell viability, Sw620 colon cancer cells; assay type: cell-based, human; details: Sw620, Colon
[5] = read-out: IC50 (−LogM), HKE3, Colon, second HKE3 line (converted)
[6] = NCI-H460, read-out: IC50 (−LogM), H460, Lung (converted)
[7] = NCI-H460, read-out: IC50 in H460 cells, Table 1
[8] = read-out: IC50 (−LogM), H226B, Lung, first H226B line (converted)
[9] = read-out: IC50 (−LogM), H226B, Lung, second H226B line (converted)

4H-1,2,4-Triazol-4-amine, N-[[1-[(2,4-dichlorophenyl)methyl]-1H-indol-3-yl]methyle> [Oncrasin K002]
IC50 in H460 cells (H460 cells [1]): 4.8

7H-Pyrrolo[2,3-d]pyrimidin-4-amine, N-[3-(1H-imidazol-1-yl)propyl]-5,6-diphenyl-7- [Oncrasin K017]
IC50 in T29 cells (T29 cells): 4.8
IC50 in T29k cells (T29Kt1 cells [2]): 5

O=Cc1cn(Cc2ccccc2)c2ccccc12 [Oncrasin K014, 1-Benzylindole-3-carboxaldehyde]
IC50 (DLD1): < 31.6 µM
IC50 (Heb46): 3.16 µM
IC50 (A549CK8): 6.31 µM
IC50 (HKE3; read-out: IC50 (−LogM), HKE3, Colon, first HKE3 line (converted)): 1 µM
IC50 (HKE3; [5]): 5.01 µM
IC50 (CT116P53): < 31.6 µM
IC50 (Capanc-1): 31.6 µM
IC50 (Heb44): 501 nM
IC50 (Hct116): 7.94 µM
IC50 (A549 cells): 31.6 µM
IC50 (T29Kt1 cells [3]): 5010 nM
IC50 (H460 cells [4]; [6]): 25.1 nM
IC50 (H460 cells [4]; [7]): 25.1 nM
IC50 (H226B cells; [8]): 2 µM
IC50 (H226B cells; [9]): 31.6 µM
IC50 (miapac): < 31.6 µM
IC50 (AsPC-1): 7.94 µM

NC(=S)NN=Cc1cn(Cc2ccccc2)c2ccccc12 [Oncrasin K031, Hydrazinecarbothioamide, 2-[[1-(phenylmethyl)-1H-indol-3-yl]methylene]-(9CI)]
IC50 in T29k cells (T29Kt1 cells [2]): 5

O=S(=O)(Nc1nccs1)c1ccc(N=Cc2cn(Cc3ccccc3)c3ccccc23)cc1 [Oncrasin K042, Sulfanilamide, N4-[(1-benzylindol-3-yl)methylene]-N1-2-thiazolyl-(8CI)]
IC50 (−LogM) (DLD1; DLD1, Colon): >4.5 −LogM
IC50 (−LogM) (Heb46): 5.4 −LogM
IC50 (−LogM) (A549CK8; A549CK8, Lung): 5.3 −LogM
IC50 (−LogM) (HKE3; first HKE3 line): 6 −LogM
IC50 (−LogM) (HKE3; second HKE3 line): 5 −LogM
IC50 (−LogM) (H322 cells): >4.5 −LogM
IC50 (−LogM) (CT116P53; CT116P53, Colon): >4.5 −LogM
IC50 (−LogM) (Capanc-1; capanc1, Pancrease): 5.5 −LogM
IC50 (−LogM) (Heb44): 6.7 −LogM
IC50 (−LogM) (Hct116; Hct116, Colon): 5 −LogM
IC50 (−LogM) (H1299 cells; h1299, Lung): >4.5 −LogM
IC50 (−LogM) (H460 cells [1]; H460, Lung): 8 −LogM
IC50 in H460 cells (H460 cells [1]): 8
IC50 (−LogM) (A549 cells; A549, Lung): 5 −LogM
IC50 in T29k cells (T29Kt1 cells [2]): 6
IC50 (−LogM) (H226B cells; first H226B line): 5.5 −LogM
IC50 (−LogM) (H226B cells; second H226B line): 5.3 −LogM
IC50 (−LogM) (miapac; miapac, Pancrease): >4.5 −LogM
IC50 (−LogM) (AsPC-1; ASPC1, Pancrease): 5 −LogM
IC50 (−LogM) (Sw620): >4.5 −LogM

O=C1C(=Cc2ccccn2)c2ccccc2N1Cc1ccccc1 [Oncrasin K046, 2-Indolinone, 1-benzyl-3-(2-pyridylmethylene)-(8CI)]
IC50 in T29 cells (T29 cells): 5.3
IC50 in T29k cells (T29Kt1 cells [2]): 5.3

CC(=O)Oc1cn(Cc2ccccc2)c2ccccc12 [Oncrasin K047, Indoxyl, 1-benzyl-, acetate (6CI)]
IC50 in H460 cells (H460 cells [1]): 5

O=Cc1cn(Cc2ccc(Cl)cc2Cl)c2ccccc12 [Oncrasin K050, 1-(2,4-dichlorobenzyl)-1H-indole-3-carbaldehyde]
IC50 in H460 cells (H460 cells [1]; listed as K50): 6.3
IC50 in H460 cells (H460 cells [1]): 7
IC50 in T29k cells (T29Kt1 cells [2]; listed as K50): 5
IC50 in T29k cells (T29Kt1 cells [2]): 5.8

O=Cc1cn(Cc2ccccc2F)c2ccccc12 [Oncrasin K051, 1-(2-fluorobenzyl)-1H-indole-3-carbaldehyde]
IC50 (DLD1): < 31.6 µM
IC50 (Heb46): 10 µM
IC50 (A549CK8): 10 µM
IC50 (HKE3; [5]): 10 µM
IC50 (CT116P53): < 31.6 µM
IC50 (Capanc-1): 31.6 µM
IC50 (Heb44): 316 nM
IC50 (Hct116): 10 µM
IC50 (H1299 cells; Homo sapiens, NCI-H1299, read-out: IC50 (−LogM), h1299, Lung (converted)): 7.94 µM
IC50 (A549 cells): 12.6 µM
IC50 (T29Kt1 cells [3]): 316 nM
IC50 (H460 cells [4]; [6]): 100 nM
IC50 (H460 cells [4]; [7]): 100 nM
IC50 (H226B cells; [8]): 0.794 µM
IC50 (H226B cells; [9]): 10 µM
IC50 (miapac): < 31.6 µM
IC50 (AsPC-1): 7.94 µM
